Measured values: patent US12539324B2, “Antimicrobial peptide stimulating sanitizing composition” (GOJO Industries, Inc., priority 2016, dated 2026)

Legend:
Assay type in all cases: cell-based, human
[1] = system: HBD-1; assay: HBD-1 ELISA, dose response in NHEK culture medium; settings: vs control culture medium
Description: (§1) To determine the optimal dose of active ingredient, test dose response studies were run using both Decorinyl® and Pamitoyl Pentapeptided-3. These test dose response studies were commissioned to determine the concentration of HBD-1 at various levels of the active ingredients. Neonatal Human Epidermal Keratinocytes (NHEK; Life Technology, Grand Island, NY, USA) were cultured with keratinocyte growth medium (KGM, Medium 154: M-154-500 Life Technology with supplements S-001, Life Technologies). NHEK were seeded into 96-well plates at a density of 10000 cells in 200 μl medium per well. After 48 hours, the cells were incubated with varying concentrations of each ingredient solution in a culture medium (KGM) overnight (16 hours) at 37° C., 5% CO2 and 95% humidity at four replicates for each concentration. Each of these active ingredients was tested at the following weight percents based on the weight of the total culture: 0.02 wt. %, 0.05 wt. %, 0.1 wt. %, 0.2 wt. %, 0.5 wt. %, 1.0 wt. %, 2.0 wt. %. Each of these compositions was compared to a control culture medium.
HBD-1 was detected using HBD-1 ELISA (enzyme-linked immunosorbent assay) developing kits (commercially available from Peprotech). […] The results were measured using a colorimeter, absorbance was measured at 450 nanometers (nm) within 30 minutes. […] The concentration of each sample was calculated using ELISA standard curve.

[2] = system: HBD-2; assay: HBD-2 ELISA, dose response in NHEK culture medium; settings: 2.0 wt. %, vs control culture medium
Description: as §1, with “of HBD-2” for “of HBD-1”, “ingredients were” for “ingredients was”
HBD-2 was detected using HBD-2 ELISA developing kits (commercially available from Peprotech). […] The results were measured using a colorimeter, absorbance was measured at 450 nanometers (nm) within 30 minutes. […] The concentration of each sample was calculated using ELISA standard curve.

[3] = system: HBD-3; assay: HBD-3 ELISA, dose response in NHEK culture medium; settings: vs control culture medium
Description: as §1, with “HBD-3” for “HBD-1”, “5-001,” for “S-001,”
HBD-3 was detected using HBD-3 ELISA developing kits (commercially available from Peprotech). […] The results were measured using a colorimeter, absorbance was measured at 450 nanometers (nm) within 30 minutes. […] The concentration of each sample was calculated using ELISA standard curve.

With “palmitoyl pentapeptide-3 [Pamitoyl Pentapeptided-3]” the “increase in HBD-1 concentration” value ([1]; 1.0 wt. %) was 311%, the “increase in HBD-1 concentration” value ([1]; 2.0 wt. %) was 1561% and the “increase in HBD-2 concentration” value [2] was 2800%. The “increase in HBD-3 concentration” value ([3]; 1.0 wt. %) was 1005% and the “increase in HBD-3 concentration” value ([3]; 2.0 wt. %) was 1890%.
